From ChEMBL document CHEMBL3045368, “Design, synthesis, and biological activities of novel 2-cyanoacrylates containing oxazole, oxadiazole, or quinoline moieties” (2009)

Assays:
Format in all cases: functional
Medicago sativa [1] = test: Herbicidal activity against Medicago sativa (alfalfa) assessed as inhibition of herb growth at 1.5 kg/ha during postemergence treatment protocol; conditions: post-emergence, read-out: GI
Brassica napus [2] = test: Herbicidal activity against Brassica napus (oilseed rape) assessed as inhibition of herb growth at 1.5 kg/ha during postemergence treatment protocol; conditions: post-emergence, read-out: GI
Digitaria sanguinalis [3] = test: Herbicidal activity against hairy Digitaria sanguinalis (hairy crabgrass) assessed as inhibition of herb growth at 1.5 kg/ha during preemergence treatment protocol; conditions: pre-emergence, read-out: GI
Amaranthus retroflexus [4] = test: Herbicidal activity against Amaranthus retroflexus assessed as inhibition of herb growth at 1.5 kg/ha during postemergence treatment protocol; conditions: post-emergence, read-out: GI
Brassica napus [5] = test: Herbicidal activity against Brassica napus (oilseed rape) assessed as inhibition of herb growth at 1.5 kg/ha during preemergence treatment protocol; conditions: pre-emergence, read-out: GI
Cucumis sativus = test: Plant growth regulatory activity in Cucumis sativus (cucumber) seeds assessed as stimulation of radicle growth level at 10 mg/mL
Amaranthus retroflexus [6] = test: Herbicidal activity against Amaranthus retroflexus assessed as inhibition of herb growth at 1.5 kg/ha during preemergence treatment protocol; conditions: pre-emergence, read-out: GI
Medicago sativa [7] = test: Herbicidal activity against Medicago sativa (alfalfa) assessed as inhibition of herb growth at 1.5 kg/ha during preemergence treatment protocol; conditions: pre-emergence, read-out: GI
Digitaria sanguinalis [8] = test: Herbicidal activity against hairy Digitaria sanguinalis (hairy crabgrass) assessed as inhibition of herb growth at 1.5 kg/ha during postemergence treatment protocol; conditions: post-emergence, read-out: GI

Row | Compound | inhibition of growth at 1500 g/ha (Medicago sativa [1]) [%] | inhibition of growth at 1500 g/ha (Brassica napus [2]) [%] | inhibition of growth at 1500 g/ha (Digitaria sanguinalis [3]) [%] | inhibition of growth at 1500 g/ha (Amaranthus retroflexus [4]) [%] | inhibition of growth at 1500 g/ha (Brassica napus [5]) [%] | Activity (Cucumis sativus) [%] | inhibition of growth at 1500 g/ha (Amaranthus retroflexus [6]) [%] | inhibition of growth at 1500 g/ha (Medicago sativa [7]) [%] | inhibition of growth at 1500 g/ha (Digitaria sanguinalis [8]) [%]
1 | CCOCCOC(=O)/C(C#N)=C(\NCc1ncc(C(C)C)o1)C(C)C | 15 | 100 | 0 | 80.5 | 52.7 | 98.2 | 0 | 0 | 10
2 | CCOCCOC(=O)/C(C#N)=C(\NCc1coc(-c2ccccc2)n1)C(C)C | 0 | 87.3 | 5 | 71.4 | 0 | 60 | 10 | 0 | 87
3 | CCOCCOC(=O)/C(C#N)=C(\NCc1nc(-c2ccc(C(F)(F)F)cc2)no1)C(C)C | 43.2 | 100 | 10 | 100 | 48.4 |  | 50.3 | 0 | 57.5
4 | CCOCCOC(=O)/C(C#N)=C(\NCc1ccc2ncccc2c1)SC | 0 | 100 | 10 | 100 | 10 | 145 | 0 | 0 | 66.2
5 | CCOCCOC(=O)/C(C#N)=C(\NCc1ncc(C)o1)SC | 0 | 10 | 0 | 100 | 0 |  | 43.9 | 0 | 10
6 | CCOCCOC(=O)/C(C#N)=C(\NCc1nc(-c2ccc(F)cc2)no1)SC | 0 | 15 | 0 | 0 | 10 |  | 0 | 0 | 10
7 | CCOCCOC(=O)/C(C#N)=C(\NCc1cnc2ccccc2c1)C(C)C | 0 | 100 | 0 | 100 | 18.2 | 85 | 41.9 | 0 | 45.5
8 | CCOCCOC(=O)/C(C#N)=C(\NCc1ncc(C(C)C)o1)SC | 0 | 5 | 0 | 26.8 | 10 | 63.7 | 5 | 0 | 0
9 | CCOCCOC(=O)/C(C#N)=C(\NCc1nc(-c2ccc(C(F)(F)F)cc2)no1)SC | 0 | 100 | 0 | 0 | 0 |  | 0 | 0 | 37.5
10 | CCOCCOC(=O)/C(C#N)=C(\NCc1coc(-c2cccc(Cl)c2)n1)SC | 0 | 25.4 | 0 | 0 | 0 | 80 | 0 | 10 | 6.5
11 | CCOCCOC(=O)/C(C#N)=C(\NCc1ccc2ccccc2n1)C(C)C | 0 | 72 | 0 | 77.8 | 0 | 115 | 0 | 0 | 50.6
12 | CCOCCOC(=O)/C(C#N)=C(\NCc1ccc2ccccc2n1)SC | 15 | 35.6 | 0 | 0 | 0 | 60 | 0 | 0 | 0
13 | CCOCCOC(=O)/C(C#N)=C(\NCc1ccc2ncccc2c1)C(C)C | 10 | 73.7 | 0 | 0 | 0 | 85 | 0 | 0 | 0
14 | CCOCCOC(=O)/C(C#N)=C(\NCc1cnc2ccccc2c1)SC | 67.8 | 100 | 0 | 100 | 74.9 | 110 | 35.5 | 10 | 48.1
15 | CCOCCOC(=O)/C(C#N)=C(\NCc1coc(-c2ccccc2)n1)SC | 0 | 34.7 | 0 | 0 | 5 | 50 | 5 | 5 | 0
16 | CCOCCOC(=O)/C(C#N)=C(/CC)NCc1ccc2ccccc2n1 | 0 | 8.5 | 0 | 0 | 0 | 95.4 | 20 | 0 | 0
17 | CCOCCOC(=O)/C(C#N)=C(/CC)NCc1nc(-c2ccc(F)cc2)no1 | 0 | 0 | 0 | 0 | 15 |  | 0 | 0 | 0
18 | CCOCCOC(=O)/C(C#N)=C(\NCc1coc(-c2cccc(Cl)c2)n1)C(C)C | 0 | 80.5 | 0 | 84.1 | 15 |  | 0 | 5 | 0
19 | CCOCCOC(=O)/C(C#N)=C(\NCc1nc(-c2ccc(F)cc2)no1)C(C)C | 10 | 100 | 0 | 100 | 88 |  | 0 | 0 | 82.5
